Data set [1] concerns Substrate RNA (SUB-156). The data set is described as follows: RNase P-mediated cleavage assay, single turnover conditions. The following applies: 200 nM EGS, 20 nM substrate, saturating RNase P, 60 min. Type of data set: biochemical, hepatitis B virus (HBV). The procedure:
RNase P-mediated cleavage assay--Human RNase P was purified from HeLa cells according to the published procedures (14). Substrate RNA (SUB-156, FIG. 24) was 5'-end labeled using T4 polynucleotide kinase and [γ-^32P]ATP. The labeling mixture was then heated to 85° C. for 1 min, diluted with RNase-free water, and purified by a MICROSPIN™ G-25 column (Pharmacia) according to the manufacturer's instructions. Cleavage reactions were conducted in a reaction buffer containing 50 mM Tris-HCl (pH 7.4), 25 mM KCl, 10 mM MgCl2 and 0.1 mM EDTA. EGS oligomers and ^32 p-5'-end-labeled RNA substrate were heated in the reaction buffer without MgCl2 to 85° C. for 1 min and then slowly cooled to room temperature. The cleavage reaction was initiated by adding 2 μl of 100 mM MgCl2 and 3 μl of RNase P (enzyme activity for this preparation: cleavage of 0.035 pmol of tRNA^Tyr precursor min^-1 μl^-1). The final reaction volume was 20 μl and the reaction was incubated at 37° C. for 60 min. […] For each sample, cleavage reactions were performed in duplicates and the average values were used. To ensure reproducibility, cleavage assays for each EGS were also repeated in two separate experiments. The all-RNA EGS-159 was used as the reference sample and its cleavage values were counted as 100%. Cleavage percentages of all other EGSs were normalized against EGS-159 (Rel. Cleavage %) except in FIG. 30 and FIG. 31 where absolute cleavage percentages (Abs. Cleavage %) were plotted.
(§1) For EGS-single turnover conditions, the final concentrations were 200 nM for EGS and 20(nM for the RNA substrate. For EGS-multiple turnover conditions, the final concentrations were 200 nM for the RNA substrate and 40 nM for EGS. When determination of the time-course was required, the reaction volume was increased to 40 μl. Aliquots of 5-8 μl were removed from the reaction mixture at different time points (e.g. 1, 5, 15, 30 and 60 min), quenched in formamide loading buffer, and loaded onto 15% polyacrylamide/8 M urea gels. Quantitation of the cleavage product and the remaining RNA substrate was achieved using a Molecular Dynamics PHOSPHORIMAGER™.
General considerations--To select lead nuclease-resistant oligonucleotide prototypes as external guide sequences among many possible modifications, a reliable yet rapid in vitro cleavage assay for routine screening was used. Human RNase P, a ribonucleoprotein, is composed of a 340-nt H1 RNA component and one or more proteins (for recent review, see Ref. 16). A 3-step screening strategy was devised: 1) All analogues once synthesized were tested by a fast qualitative cleavage assay under single turnover conditions with 10-fold excess of EGS over target RNA substrate for 60 min. […] This was the best cleavage condition used in this study. Any analogue with a reasonable activity (e.g. more than 5% cleavage) would not be missed, under these circumstances, due to the high detection sensitivity provided by PHOSPHORIMAGER™. 2) Promising analogues were then assayed for stability in 50% human serum.

Data set [2] in a line: Nuclease resistance studies in 50% human serum. Type of data set: in vitro ADME. The settings on record: 37° C., 24 h. The method, then:
Nuclease resistance studies--100 μl of EGS oligonucleotides (5 μM), containing a trace of 5'-end-labeled oligomers, were incubated at 37° C. for different time periods (0-24 h) with 50% human serum (Sigma, S-7023). 20 μl aliquots were diluted to 100 μl with RNase-free water, phenol/chlorform extracted, and ethanol precipitated. The residue was resuspended in 10 μl of TE and 10 μl of 2× gel loading buffer containing 98% formamide, 10 mM1 EDTA and 0.1% bromophenol blue. The mixture was heated to 85° C. for 1 min, quickly cooled on ice and frozen at -20° C. prior to electrophoresis on 15% polyacrylamide/8 M urea gels. Gels were subsequently scanned on a Molecular Dynamics PHOSPHORIMAGER™, and the stability profile for each, oligomer was estimated from the ratio of the remaining intact materials versus all radio-labeled materials (intact oligomers plus degradation products). Stability studies of non radio-labeled EGS oligomers using capillary gel electrophoresis were also carried out according to the method of Leeds et al. (15).

In data set [3] the test system is EGS/target RNA complex (SUB-156) with human RNase P. The data set is described as follows: Measurements of kcat and A50. Type of data set: biochemical, hepatitis B virus (HBV). The procedure:
Measurements of kcat, Km and A50 --Measurements of these kinetic parameters were carried out using conditions similar to those described above (e.g. identical cleavage buffers). For kcat measurements, aliquots were taken every 30-60 s for the first 5 min. The logarithm of the percentage of cleavage (Abs. Cleavage %) was plotted against time, and the data points were fitted using a linear least-squaresanalysis. The slope represents kcat values. For Km measurements,a fixed amount of RNase P (0.6 μl) was used, while substrate concentrations (i.e. EGS/target RNA complex) varied from 25 to 500 nM. Several EGS/target RNA ratios were assayed including 1:1, 5:1 and 10:1. Attempts were made to obtain Km and Vmax values from linear Lineweaver-Burk or Eadie-Hofstee plots. The scattered values could not be fit as a hyperbolic function. For A50 measurements, the ratio between EGS and target RNA was kept as 10:1. Various amounts of RNase P (0.3 to 3 μl) were used to conduct a 60-min cleavage reaction. Percentage of cleavage was plotted against [RNase P] in μl, and 50% cleavage values (A50) were determined using a non-linear, least-squares routine (Kaleidagraph, Synergy Software). The amount of RNase P required to reach A50 was then converted to enzyme unit. 1 unit of RNase P represents the amount of RNase P that catalyzes the conversion of 1 pmol of tRNA^Tyr precursor to cleavage products per minute per μl of the enzyme preparation. 1 unit of RNase P preparation used for this study equals 28.57 μl.

For data set [4], the system named is target RNA SUB-156. The data set is described as follows: RNase P-mediated cleavage, EGS-multiple turnover conditions. Type of data set: biochemical, hepatitis B virus (HBV). The following applies: 5-fold of RNA target over EGS. The procedure:
FIG. 31 is a graph of a time-course of cleavage with selected EGSs under EGS-multiple turnover conditions. Experiments were conducted under similar conditions as that used in FIG. 30 with the exception that the molar ratio between ^32 P-5'-end-labeled target RNA SUB-156 and the respective EGSs was 5:1. Saturing amounts of RNase P were employed. Aliquots were withdrawn from the cleavage reaction at different time points, quenched in formamide loading buffer and loaded on 15% polyacryladmide/8 M urea gels. Absolute percentages of cleavage are expressed on the Y-axis. EGS-159 (.circle-solid.) is the all-RNA EGS control and EGS-407 (.smallcircle.) is one of the lead modified prototypes.
as §1

Regarding “EGS-407: lead prototype, U54 replaced with thymidine, SEQ ID NO. 46 (AGAUGAUAGAAGGTUAGAAUCCUUCACGCCGC; guide RNA; Thymidine at tRNA position 54, rest of chemistry not given here)”, the “RNase P-mediated cleavage activity compared to the all-RNA control” value in data set [1] is “promising”. Moreover, the “degradation in 50% human serum” value in data set [2] was “no degradation products were detected”. Moreover, the “A50 (amount of RNase P required to achieve 50% cleavage)” value in data set [3] (60 min, EGS in 10-fold excess relative to the RNA target) is 0.053 unit. Also, the kcat entry in data set [3] (single turnover, first 5 min) is recorded as “indistinguishable from that of the all-RNA control”. Besides, the “turnover over a course of 60 min” value in data set [4] is reported as “about 3 times”.
